Experimental data reported in patent publication US9738634B2, “Heterocyclic amide compound and herbicide” (SYNGENTA PARTICIPATIONS AG, priority 2013, dated 2017).

Assays:
Format in all cases: in vivo
barnyard grass [1] = assay: Test Example 1: weedkilling efficacy, preemergent weed treatment in the submerged state; A: barnyard grass; details: treatment dosage 252 g/ha
In short: (§1)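 Submerged pre-emergence treatment, water-surface application of compound emulsion at g/ha dosages; 4 cm flooded alluvial soil, weeds sown and 2.5-leaf rice transplanted same day. Rated after 3 weeks, greenhouse.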

bulrush [2] = assay: Test Example 1: weedkilling efficacy, preemergent weed treatment in the submerged state; B: bulrush; details: treatment dosage 252 g/ha
In short: as §1

oval-leafed pondweed [3] = assay: Test Example 1: weedkilling efficacy, preemergent weed treatment in the submerged state; C: oval-leafed pondweed; details: treatment dosage 252 g/ha
In short: as §1

transplanted rice = assay: Test Example 1: preemergent weed treatment in the submerged state, effect on crop; a: transplanted rice; details: treatment dosage 252 g/ha
In short: as §1

barnyard grass [4] = assay: Test Example 2: weedkilling efficacy, growth period weed treatment in the submerged state; A: barnyard grass; details: treatment dosage 252 g/ha
In short: (§2)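 Seedlings at 1-2 leaves in 4 cm-deep submerged alluvial soil received emulsion formulations on the water surface, dosed per hectare; effects were judged 3 weeks on.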

bulrush [5] = assay: Test Example 2: weedkilling efficacy, growth period weed treatment in the submerged state; B: bulrush; details: treatment dosage 252 g/ha
In short: as §2

oval-leafed pondweed [6] = assay: Test Example 2: weedkilling efficacy, growth period weed treatment in the submerged state; C: oval-leafed pondweed; details: treatment dosage 252 g/ha
In short: as §2

crabgrass = assay: Test Example 3: weedkilling efficacy through soil treatment; D: crabgrass; details: soil treatment, treatment dosage 315 g/ha
In short: (§3)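 Crop and weed responses were judged three weeks after a uniform surface spray of the water-diluted emulsion at the given g/ha rate. Seeds sat beneath about 1.5 cm of sterilized diluvial soil, and boxes stood in a greenhouse at 25 to 30° C.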

green foxtail = assay: Test Example 3: weedkilling efficacy through soil treatment; E: green foxtail; details: soil treatment, treatment dosage 315 g/ha
In short: as §3

barnyard grass [7] = assay: Test Example 3: weedkilling efficacy through soil treatment; F: barnyard grass; details: soil treatment, treatment dosage 315 g/ha
Text: Weedkilling Efficacy Test Through Soil Treatment
Sterilized diluvial soil was introduced into 21 cm long, 13 cm wide, 7 cm deep plastic boxes, and seeds of crabgrass, green foxtail, barnyard grass, wild oat, black-grass, Italian ryegrass, common wind-grass, Indian mallow, redroot pigweed, fig-leafed goosefoot, chickweed, catchweed, birds-eye speedwell, corn, soybean, rice, wheat, beet and rapeseed were each spot-sown, and covered with about 1.5 cm of soil. Next, emulsions of compounds of the present invention prepared according to compounding example 2 were diluted with water to give the specified dosages, and applied uniformly onto the soil surface with a small sprayer. The plants were grown by placing the plastic boxes in a greenhouse at 25 to 30° C., and 3 weeks after the pesticide treatment the effect on each type of plant was investigated on the basis of the assessment criteria of test example 1.
A: barnyard grass, B: bulrush, C: oval-leafed pondweed, D: crabgrass, E: green foxtail, F: barnyard grass, G: wild oat, H: black-grass, I: Italian ryegrass, J: common wind-grass, K: Indian mallow, L: redroot pigweed, M: fig-leafed goosefoot, N: chickweed, O: catchweed, p: birds-eye speedwell, a: transplanted rice, b: directly sown rice, c: corn, d: soybean, e: wheat, f: beet, g: rapeseed
Further, pesticide dosage (g/ha) indicates the concentration regulated such that treatment was with only the stated number of grams (g), when calculated per hectare (ha).

wild oat = assay: Test Example 3: weedkilling efficacy through soil treatment; G: wild oat; details: soil treatment, treatment dosage 315 g/ha
In short: as §3

black-grass = assay: Test Example 3: weedkilling efficacy through soil treatment; H: black-grass; details: soil treatment, treatment dosage 315 g/ha
In short: as §3

Italian ryegrass = assay: Test Example 3: weedkilling efficacy through soil treatment; I: Italian ryegrass; details: soil treatment, treatment dosage 315 g/ha
In short: as §3

common wind-grass = assay: Test Example 3: weedkilling efficacy through soil treatment; J: common wind-grass; details: soil treatment, treatment dosage 315 g/ha
In short: as §3

Indian mallow = assay: Test Example 3: weedkilling efficacy through soil treatment; K: Indian mallow; details: soil treatment, treatment dosage 315 g/ha
In short: as §3

redroot pigweed = assay: Test Example 3: weedkilling efficacy through soil treatment; L: redroot pigweed; details: soil treatment, treatment dosage 315 g/ha
In short: as §3

chickweed = assay: Test Example 3: weedkilling efficacy through soil treatment; N: chickweed; details: soil treatment, treatment dosage 315 g/ha
In short: as §3

catchweed = assay: Test Example 3: weedkilling efficacy through soil treatment; O: catchweed; details: soil treatment, treatment dosage 315 g/ha
In short: as §3

birds-eye speedwell = assay: Test Example 3: weedkilling efficacy through soil treatment; p: birds-eye speedwell; details: soil treatment, treatment dosage 315 g/ha
In short: as §3

directly sown rice = assay: Test Example 3: soil treatment, effect on crop; b: directly sown rice; details: soil treatment, treatment dosage 315 g/ha
In short: as §3

corn = assay: Test Example 3: soil treatment, effect on crop; c: corn; details: soil treatment, treatment dosage 315 g/ha
In short: as §3

soybean = assay: Test Example 3: soil treatment, effect on crop; d: soybean; details: soil treatment, treatment dosage 315 g/ha
In short: as §3

wheat = assay: Test Example 3: soil treatment, effect on crop; e: wheat; details: soil treatment, treatment dosage 315 g/ha
In short: as §3

beet = assay: Test Example 3: soil treatment, effect on crop; f: beet; details: soil treatment, treatment dosage 315 g/ha
In short: as §3

rapeseed = assay: Test Example 3: soil treatment, effect on crop; g: rapeseed; details: soil treatment, treatment dosage 315 g/ha
In short: as §3

CC(C)(C(=O)Nc1cc(F)cc(F)n1)N1COCN(c2ccccc2)C1=O [A-2-13]
A: barnyard grass, weed kill grade (barnyard grass [1]): 5 (weed kill ratio 90% or more, (practically complete withering)) | B: bulrush, weed kill grade (bulrush [2]): 5 (weed kill ratio 90% or more, (practically complete withering)) | C: oval-leafed pondweed, weed kill grade (oval-leafed pondweed [3]): 5 (weed kill ratio 90% or more, (practically complete withering)) | a: transplanted rice, effect on crop grade (transplanted rice): 3 (weed kill ratio 40% or more, less than 70%) | A (barnyard grass) weedkilling efficacy grade (barnyard grass [4]): 5 (weed kill ratio 90% or more, (practically complete withering)) | B (bulrush) weedkilling efficacy grade (bulrush [5]): 5 (weed kill ratio 90% or more, (practically complete withering)) | C (oval-leafed pondweed) weedkilling efficacy grade (oval-leafed pondweed [6]): 5 (weed kill ratio 90% or more, (practically complete withering)) | D: crabgrass, weedkilling efficacy grade (crabgrass): 5 (weed kill ratio 90% or more, (practically complete withering)) | E: green foxtail, weedkilling efficacy grade (green foxtail): 5 (weed kill ratio 90% or more, (practically complete withering)) | F: barnyard grass, weedkilling efficacy grade (barnyard grass [7]): 5 (weed kill ratio 90% or more, (practically complete withering)) | G: wild oat, weedkilling efficacy grade (wild oat): 5 (weed kill ratio 90% or more, (practically complete withering)) | H: black-grass, weedkilling efficacy grade (black-grass): 5 (weed kill ratio 90% or more, (practically complete withering)) | I: Italian ryegrass, weedkilling efficacy grade (Italian ryegrass): 5 (weed kill ratio 90% or more, (practically complete withering)) | J: common wind-grass, weedkilling efficacy grade (common wind-grass): 5 (weed kill ratio 90% or more, (practically complete withering)) | K: Indian mallow, weedkilling efficacy grade (Indian mallow): 5 (weed kill ratio 90% or more, (practically complete withering)) | L: redroot pigweed, weedkilling efficacy grade (redroot pigweed): 5 (weed kill ratio 90% or more, (practically complete withering)) | N: chickweed, weedkilling efficacy grade (chickweed): 5 (weed kill ratio 90% or more, (practically complete withering)) | O: catchweed, weedkilling efficacy grade (catchweed): 5 (weed kill ratio 90% or more, (practically complete withering)) | P: birds-eye speedwell, weedkilling efficacy grade (birds-eye speedwell): 5 (weed kill ratio 90% or more, (practically complete withering)) | b: directly sown rice, effect on crop grade (directly sown rice): 5 (weed kill ratio 90% or more, (practically complete withering)) | c: corn, effect on crop grade (corn): 4 (weed kill ratio 70% or more, less than 90%) | d: soybean, effect on crop grade (soybean): 3 (weed kill ratio 40% or more, less than 70%) | e: wheat, effect on crop grade (wheat): 5 (weed kill ratio 90% or more, (practically complete withering)) | f: beet, effect on crop grade (beet): 4 (weed kill ratio 70% or more, less than 90%) | g: rapeseed, effect on crop grade (rapeseed): 5 (weed kill ratio 90% or more, (practically complete withering))
